Experimental data as given in patent publication US8148391B2 (Cephalon, Inc., priority 2006, dated 2012).
Where two headings read alike, the source gives them in different places. Blank lines part the entries; values can stand above or below the compound they belong to.

Tests used:
[1] = target: T1, baculovirus-expressed ALK (Homo sapiens, UniProt Q9UM73); test: ALK Kinase Assay (ELISA-type, time-resolved fluorescence); type: biochemical
T1 construct: host or cells: baculovirus expression system
Method in brief: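 Substrate coating: phospholipase C-γ, 10 μg/mL in TBS. Kinase step: 30 ng/ml ALK, 15 min, 37° C. Detection and analysis: Eu-N1 PT66 antibody, with IC50 fitted as a sigmoidal variable-slope dose-response curve.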

[2] = target: T2, c-Met (cytoplasmic domain) (Homo sapiens, UniProt P08581); test: c-Met Kinase Assay (same methods as for ALK, with modifications); type: biochemical
T2 construct: 10 ng/mL c-Met (cytoplasmic domain, Invitrogen Corporation #PV3143); purchased Invitrogen Corporation PV3143
Method in brief: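 Wells were coated with 10 μg/mL phospholipase C-γ substrate in TBS, and reactions were started with 10 ng/mL c-Met cytoplasmic domain and run at 37° C for 15 minutes. Phosphorylated product was detected with Eu-N1-labeled PT66 antibody. IC50 values came from sigmoidal variable-slope fits of percent inhibition versus log compound concentration.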

[3] = 1 μM ATP (Km level), read-out: ALK Activity (ALK Kinase Inhibition, IC50)
[4] = 1 μM ATP (Km level), read-out: cMet Activity (c-Met Kinase Inhibition, IC50)
[5] = 1 μM ATP (Km level), 30 ng/ml ALK, 37° C., 15 minutes, read-out: ALK Activity (ALK kinase inhibition, IC50 class)
[6] = 1 μM ATP (Km level), 10 ng/mL c-Met, read-out: cMet Activity (c-Met kinase inhibition, IC50 class)
[7] = ALK kinase inhibition, 1 μM ATP (Km level), read-out: ALK Activity
[8] = c-Met kinase inhibition, 1 μM ATP (Km level), read-out: cMet Activity
[9] = ALK kinase inhibition, 1 μM ATP, read-out: ALK Activity
[10] = c-Met kinase inhibition, 1 μM ATP, read-out: cMet Activity

T2 sequence (P08581 956-1390 limits assumed): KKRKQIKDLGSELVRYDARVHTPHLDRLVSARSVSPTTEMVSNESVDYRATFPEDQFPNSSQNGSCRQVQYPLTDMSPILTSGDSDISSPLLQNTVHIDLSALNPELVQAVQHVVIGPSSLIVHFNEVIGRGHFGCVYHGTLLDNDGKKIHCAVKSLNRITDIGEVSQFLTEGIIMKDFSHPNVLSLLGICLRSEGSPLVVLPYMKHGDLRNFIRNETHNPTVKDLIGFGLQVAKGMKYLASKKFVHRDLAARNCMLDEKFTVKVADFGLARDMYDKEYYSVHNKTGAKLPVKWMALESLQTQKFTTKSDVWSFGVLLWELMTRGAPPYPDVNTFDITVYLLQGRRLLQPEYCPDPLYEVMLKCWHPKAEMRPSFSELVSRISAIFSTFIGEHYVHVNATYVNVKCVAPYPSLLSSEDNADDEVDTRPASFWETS
T1 sequence (Q9UM73 19-1620): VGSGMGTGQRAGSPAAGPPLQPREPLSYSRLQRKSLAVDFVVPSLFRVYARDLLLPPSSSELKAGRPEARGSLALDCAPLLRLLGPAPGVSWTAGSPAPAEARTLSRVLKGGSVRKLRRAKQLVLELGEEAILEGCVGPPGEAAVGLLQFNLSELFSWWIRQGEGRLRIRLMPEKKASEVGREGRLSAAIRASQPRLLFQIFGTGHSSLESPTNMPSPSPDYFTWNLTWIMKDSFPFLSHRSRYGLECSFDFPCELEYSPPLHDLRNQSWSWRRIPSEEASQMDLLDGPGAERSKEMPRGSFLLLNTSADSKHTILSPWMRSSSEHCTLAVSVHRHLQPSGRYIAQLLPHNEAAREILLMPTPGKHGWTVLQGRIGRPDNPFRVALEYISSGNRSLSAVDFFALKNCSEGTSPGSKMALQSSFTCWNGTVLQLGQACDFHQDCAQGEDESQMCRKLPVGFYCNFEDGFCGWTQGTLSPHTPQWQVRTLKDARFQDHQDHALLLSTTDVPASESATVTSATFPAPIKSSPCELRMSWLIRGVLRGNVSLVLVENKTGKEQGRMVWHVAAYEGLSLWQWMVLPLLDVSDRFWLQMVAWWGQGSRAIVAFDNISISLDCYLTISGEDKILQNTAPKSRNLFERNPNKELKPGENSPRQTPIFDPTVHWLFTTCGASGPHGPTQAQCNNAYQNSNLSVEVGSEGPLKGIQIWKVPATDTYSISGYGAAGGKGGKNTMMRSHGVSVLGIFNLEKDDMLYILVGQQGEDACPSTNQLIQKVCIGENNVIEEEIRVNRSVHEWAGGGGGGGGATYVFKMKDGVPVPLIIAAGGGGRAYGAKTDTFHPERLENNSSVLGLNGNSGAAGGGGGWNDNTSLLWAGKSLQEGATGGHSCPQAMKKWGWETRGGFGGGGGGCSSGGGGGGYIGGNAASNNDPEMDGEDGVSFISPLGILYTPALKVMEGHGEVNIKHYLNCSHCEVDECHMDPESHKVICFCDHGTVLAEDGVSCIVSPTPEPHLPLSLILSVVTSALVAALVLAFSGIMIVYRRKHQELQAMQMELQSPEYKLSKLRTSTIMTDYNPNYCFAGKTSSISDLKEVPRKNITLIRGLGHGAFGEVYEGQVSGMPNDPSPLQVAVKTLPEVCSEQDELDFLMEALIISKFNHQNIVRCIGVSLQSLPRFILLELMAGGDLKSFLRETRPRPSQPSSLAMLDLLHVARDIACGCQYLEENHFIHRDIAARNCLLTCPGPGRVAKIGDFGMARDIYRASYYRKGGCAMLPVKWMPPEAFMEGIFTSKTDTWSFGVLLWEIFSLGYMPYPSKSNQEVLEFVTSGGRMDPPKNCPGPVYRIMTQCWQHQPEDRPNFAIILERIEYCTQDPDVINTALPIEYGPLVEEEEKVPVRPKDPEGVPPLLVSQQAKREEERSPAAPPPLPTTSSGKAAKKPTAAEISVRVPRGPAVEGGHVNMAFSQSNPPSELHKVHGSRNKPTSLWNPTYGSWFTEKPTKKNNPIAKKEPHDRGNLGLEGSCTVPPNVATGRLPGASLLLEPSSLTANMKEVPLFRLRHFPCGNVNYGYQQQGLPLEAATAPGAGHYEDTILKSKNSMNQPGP

Compound: COCCN1CCc2cc(Nc3ncc(Cl)c(Nc4ccc(Cl)cc4S(=O)(=O)N(C)C)n3)c(OC)cc2CC1 [Example 839, 5-Chloro-2-{5-chloro-2-[8-methoxy-3-(2-methoxy-ethyl)-2,3,4,5-tetrahydro-1H-benzo[d]azepin-7-ylamino]-pyrimidin-4-ylamino}-N,N-dimethyl-benzenesulfonamide]
IC50 [1, 3]: < 100 nM
IC50 [2, 4]: > 10000 nM

Compound: 3-{5-Chloro-2-[3-(2-methoxy-ethyl)-2,3,4,5-tetrahydro-1H-benzo[d]azepin-7-ylamino]-pyrimidin-4-ylamino}-4-methyl-thiophene-2-carboxylic acid methylamide [Example 1363]
IC50 [1, 5]: < 100 nM
IC50 [2, 6]: < 100 nM

Compound: CS(=O)(=O)N[C@@H]1CCCC[C@H]1Nc1nc(Nc2ccc3c(c2)CCC(N2CCOCC2)CC3)ncc1Cl (stereo partly drawn) [Example 179, N-{(1R,2R)-2-[5-Chloro-2-(7-morpholin-4-yl-6,7,8,9-tetrahydro-5H-benzocyclohepten-2-ylamino)-pyrimidin-4-ylamino]-cyclohexyl}-methanesulfonamide]
IC50 [1, 7]: < 100 nM
IC50 [2, 8]: 100 to 1000 nM

Compound: C#CCNc1nc(Nc2ccc3c(c2)CCN(CC)CC3)ncc1Cl [Example 153, 5-Chloro-N*2*-(3-ethyl-2,3,4,5-tetrahydro-1H-benzo[d]azepin-7-yl)-N*4*-prop-2-ynyl-pyrimidine-2,4-diamine]
IC50 [1, 7]: 1000 to 10000 nM
IC50 [2, 8]: 1000 to 10000 nM

Compound: COCCN1C2CCC1c1cc(Nc3ncc(Cl)c(Nc4c(F)cccc4C(=O)OC(C)C)n3)ccc1C2 (centres unmarked) [Example 457, 2-{5-Chloro-2-[12-(2-methoxy-ethyl)-12-aza-tricyclo[7.2.1.0(2,7)]dodeca-2(7),3,5-trien-4-ylamino]-pyrimidin-4-ylamino}-3-fluoro-benzoic acid isopropyl ester]
IC50 [1, 7]: 100 to 1000 nM
IC50 [2, 8]: 100 to 1000 nM

Compound: COCC(COC)N1CCc2cc(Nc3ncc(Cl)c(Nc4ccc(N5CCOCC5)cc4OC)n3)c(OC)cc2CC1 [Example 814, 5-Chloro-N*2*-[8-methoxy-3-(2-methoxy-1-methoxymethyl-ethyl)-2,3,4,5-tetrahydro-1H-benzo[d]azepin-7-yl]-N*4*-(2-methoxy-4-morpholin-4-yl-phenyl)-pyrimidine-2,4-diamine]
IC50 [1, 3]: < 100 nM
IC50 [2, 4]: > 10000 nM

Compound: COc1c(Nc2ncc(Cl)c(Nc3ccccc3S(=O)(=O)C(C)C)n2)ccc2c1CCC(N1CCOCC1)CC2 (centres unmarked) [Example 883, 5-Chloro-N*2*-(1-methoxy-7-morpholin-4-yl-6,7,8,9-tetrahydro-5H-benzocyclohepten-2-yl)-N*4*-[2-(propane-2-sulfonyl)-phenyl]-pyrimidine-2,4-diamine]
IC50 [1, 3]: < 100 nM
IC50 [2, 4]: 1000 to 10000 nM

Compound: COCCN1C2CCC1c1cc(Nc3ncc(Cl)c(Nc4ccccc4NS(C)(=O)=O)n3)ccc1C2 (centres unmarked) [Example 76, N-(2-{5-Chloro-2-[12-(2-methoxy-ethyl)-12-aza-tricyclo[7.2.1.0*2,7*]dodeca-2(7),3,5-trien-4-ylamino]-pyrimidin-4-ylamino}-phenyl)-methanesulfonamide]
IC50 [1, 7]: < 100 nM
IC50 [2, 8]: 100 to 1000 nM

Compound: COc1cc2c(cc1Nc1ncc(F)c(Nc3ccc(N4CCOCC4)cc3OC)n1)CCN(CC(N)=O)CC2 [Example 810, 2-{7-[5-Fluoro-4-(2-methoxy-4-morpholin-4-yl-phenylamino)-pyrimidin-2-ylamino]-8-methoxy-1,2,4,5-tetrahydro-benzo[d]azepin-3-yl}-acetamide]
IC50 [1, 3]: < 100 nM
IC50 [2, 4]: > 10000 nM

More lines, now with the values ahead:

IC50 [1, 3]: < 100 nM
IC50 [2, 4]: > 10000 nM
Compound: COc1c(Nc2ncc(Cl)c(N[C@@H]3CCCC[C@H]3NS(C)(=O)=O)n2)ccc2c1CCCC(NCCO)C2 (stereo partly drawn) [Example 965, N-((1R,2R)-2-{5-Chloro-2-[6-(2-hydroxy-ethylamino)-1-methoxy-6,7,8,9-tetrahydro-5H-benzocyclohepten-2-ylamino]-pyrimidin-4-ylamino}-cyclohexyl)-methanesulfonamide]

IC50 [1, 5]: < 100 nM
IC50 [2, 6]: 100 to 1000 nM
Compound: C#CCN(C)C(=O)c1ccccc1Nc1nc(Nc2ccc3c(c2)CCN(CCOC)CC3)ncc1Cl [Example 1389, {5-Chloro-2-[3-(2-methoxy-ethyl)-2,3,4,5-tetrahydro-1H-benzo[d]azepin-7-ylamino]-pyrimidin-4-ylamino}-N-methyl-N-prop-2-ynyl-benzamide]

IC50 [1, 5]: < 100 nM
IC50 [2, 6]: < 100 nM
Compound: N#CCNC(=O)c1cccc(F)c1Nc1nc(Nc2ccc3c(c2)CCCC(=O)N3)ncc1Cl [Example 1046, 2-[5-Chloro-2-(2-oxo-2,3,4,5-tetrahydro-1H-benzo[b]azepin-7-ylamino)-pyrimidin-4-ylamino]-N-cyanomethyl-3-fluoro-benzamide]

IC50 [1, 9]: < 100 nM
IC50 [2, 10]: < 100 nM
Compound: CNC(=O)c1cc(-c2cnn(C)c2)cc(F)c1Nc1nc(Nc2ccc3c(c2)NC(=O)CCC3(C)C)ncc1Cl [Example 1624, 2-[5-Chloro-2-(5,5-dimethyl-2-oxo-2,3,4,5-tetrahydro-1H-benzo[b]azepin-8-ylamino)-pyrimidin-4-ylamino]-3-fluoro-N-methyl-5-(1-methyl-1H-pyrazol-4-yl)-benzamide]

IC50 [1, 9]: < 100 nM
IC50 [2, 10]: < 100 nM
Compound: CNC(=O)c1cc(F)ccc1Nc1nc(Nc2ccc3c(c2)CCOC(=O)N3C)ncc1Cl [Example 1752, 2-[5-Chloro-2-(5-methyl-6-oxo-5,6,8,9-tetrahydro-7-oxa-5-aza-benzocyclohepten-2-ylamino)-pyrimidin-4-ylamino]-5-fluoro-N-methyl-benzamide]

IC50 [1, 5]: < 100 nM
IC50 [2, 6]: > 10000 nM
Compound: CCN1C(=O)C(NC(=O)CN(C)C)CCc2c1ccc(Nc1ncc(Cl)c(Nc3ccccc3S(=O)(=O)N(C)C)n1)c2OC (centres unmarked) [Example 1356, N-{7-[5-Chloro-4-(2-dimethylsulfamoyl-phenylamino)-pyrimidin-2-ylamino]-1-ethyl-6-methoxy-2-oxo-2,3,4,5-tetrahydro-1H-benzo[b]azepin-3-yl}-2-dimethylamino-acetamide]

IC50 [1, 9]: < 100 nM
IC50 [2, 10]: 1000 to 10000 nM
Compound: CCN1CCN(CC(=O)OCCOC)C(=O)c2ccc(Nc3ncc(Cl)c(N[C@H]4[C@@H]5CC[C@@H](C5)[C@H]4C(N)=O)n3)cc21 [Example 1457, {8-[4-((1R,2S,3R,4S)-3-Carbamoyl-bicyclo[2.2.1]hept-2-ylamino)-5-chloro-pyrimidin-2-ylamino]-1-ethyl-5-oxo-1,2,3,5-tetrahydro-benzo[e][1,4]diazepin-4-yl}-acetic acid 2-methoxy-ethyl ester]

IC50 [1, 9]: < 100 nM
IC50 [2, 10]: > 10000 nM
Compound: COc1cc2c(cc1Nc1ncc(Cl)c(N[C@@H]3CCCC[C@H]3NS(C)(=O)=O)n1)NC(=O)CN(Cc1ccccc1)C2 [Example 1651, N-{(1R,2R)-2-[2-(4-Benzyl-7-methoxy-2-oxo-2,3,4,5-tetrahydro-1H-benzo[e][1,4]diazepin-8-ylamino)-5-chloro-pyrimidin-4-ylamino]-cyclohexyl}-methanesulfonamide]

IC50 [1, 5]: < 100 nM
IC50 [2, 6]: 1000 to 10000 nM
Compound: CNC(=O)CN1CCc2cc(Nc3ncc(Cl)c(Nc4c(F)cccc4C(=O)NC)n3)c(OC)cc2CC1 [Example 1116, 2-[5-Chloro-2-(8-methoxy-3-methylcarbamoylmethyl-2,3,4,5-tetrahydro-1H-benzo[d]azepin-7-ylamino)-pyrimidin-4-ylamino]-3-fluoro-N-methyl-benzamide]

IC50 [1, 5]: < 100 nM
IC50 [2, 6]: > 10000 nM
Compound: CCCCNC(=O)c1ccccc1Nc1nc(Nc2cc3c(cc2OC)CCN(CCOC)CC3)ncc1Cl [Example 1031, N-Butyl-2-{5-chloro-2-[8-methoxy-3-(2-methoxy-ethyl)-2,3,4,5-tetrahydro-1H-benzo[d]azepin-7-ylamino]-pyrimidin-4-ylamino}-benzamide]
